According to patent publication US20070265278A1, “2-PHENYL-INDOLES AS PROSTAGLANDIN D2 RECEPTOR ANTAGONISTS” (Aventis Pharmaceuticals Inc., priority 2005, published 2007):

Biological target: T1, DP receptor (Homo sapiens, UniProt Q13258)
T1 construct: using the human cell line LS174T, which expresses the endogenous DP receptor; endogenous in cells; host or cells: LS174T human cell line
T1 sequence (Q13258 1-359): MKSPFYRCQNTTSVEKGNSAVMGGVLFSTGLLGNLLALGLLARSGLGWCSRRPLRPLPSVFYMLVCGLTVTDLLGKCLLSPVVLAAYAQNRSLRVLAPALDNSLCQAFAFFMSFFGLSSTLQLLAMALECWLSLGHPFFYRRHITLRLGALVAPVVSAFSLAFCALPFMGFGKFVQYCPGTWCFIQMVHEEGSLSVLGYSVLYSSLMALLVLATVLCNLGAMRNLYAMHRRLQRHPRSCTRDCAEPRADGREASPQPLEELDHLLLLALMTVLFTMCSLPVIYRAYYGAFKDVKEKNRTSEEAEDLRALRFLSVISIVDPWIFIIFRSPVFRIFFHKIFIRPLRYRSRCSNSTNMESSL
Experiment: SPA cAMP assay in human LS174 T cells (human DP functional assay)
Format: cell-based
Settings: inhibition of PGD2 (15 nM)-stimulated cAMP, LS174T cells expressing endogenous DP receptor
Experimental: The inhibitory effects of the compounds according to the invention are assessed in a human DP functional assay. A cAMP assay is employed using the human cell line LS174T, which expresses the endogenous DP receptor. The protocol is similar to that described previously (Wright D H, Ford-Hutchinson A W, Chadee K, Metters K M, The human prostanoid DP receptor stimulates mucin secretion in LS174T cells, Br J Pharmacol. 131(8):1537-45 (2000)).
Protocol for SPA cAMP Assay in Human LS174 T Cells
• PGD2 (Cayman Chemical Cat#12010) • IBMX (Sigma Cat# 5879) • cAMP SPA direct screening assay system (Amersham code RPA 559) • 96-well cell plates (Wallac Cat# 1450-516) • Wallac 1450 Microplate Trilux scintillation counter (PerkinElmer) • Plate sealers • Eppendorf tubes • Dulbecco's Phosphate-Buffered Saline (PBS) (Invitrogen Cat#14040-133) • Distilled water • Vortex • Magnetic stirrer and stirrer bars Reagent Preparation:
All reagents should be allowed to equilibrate to room temperature before reconstitution.
Transfer the contents of the bottle to a 500 mL graduated cylinder by repeated washing with distilled water. Adjust the final volume to 500 mL with distilled water and mix thoroughly.
Dissolve each of the lysis reagents 1 and 2 in 200 mL assay buffer respectively. Leave at room temperature for 20 minutes to dissolve.
Add 30 mL of lysis buffer 2 to the bottle. Gently shake the bottle for 5 minutes.
Add 15 mL of lysis buffer 2 to each vial, and gently mix until the contents are completely dissolved.
Add 14 mL lysis buffer 2 to each vial and gently mix until the contents are completely dissolved.
Preparation of Immunoreagent
• 1) Add equal volumes of tracer, antiserum and SPA anti-rabbit reagent to a bottle, ensuring that a sufficient volume of this mixture is prepared for the desired number of wells (150 μL/well). • 2) Mix thoroughly. • 3) This immunoreagent solution should be freshly prepared before each assay and not re-used. Standard • 1) Add 1 mL lysis buffer 1 and gently mix until contents are completely dissolved. • 2) The final solution contains cAMP at a concentration of 512 pmol/mL. • 3) Label 7 polypropylene or polystyrene tubes, 0.2 pmol, 0.4 pmol, 0.8 pmol, 1.6 pmol, 3.2 pmol, 6.4 pmol and 12.8 pmol. • 4) Pipette 500 μL of lysis buffer 1 into all the tubes. • 5) Into the 12.8 pmol tube pipette 500 μL of stock standard (512 pmol/mL) and mix thoroughly. Transfer 500 μL from 12.8 pmol tube to the 6.4 pmol tube and mix thoroughly. Repeat this doubling dilution successively with the remaining tubes.
6) 50 μL aliquots in duplicate from each serial dilution and the stock standard will give rise to 8 standard levels of cAMP ranging from 0.2-25.6 pmol standard
Add 50 μL of […] IBMX into 100 mL PBS to make a final concentration of 100 μM and sonicate at 30° C. for 20 minutes.
Dissolve 1 mg PGD2 (FW, 352.5) in 284 μL DMSO to make 10 mM stock solution and store at […]. Before each assay, it is freshly prepared. Add 3 μL of 10 mM stock solution to 20 mL DMSO, mix it thoroughly, and transfer 10 mL to 40 mL PBS.
Compound dilution is carried out in Biomex 2000 (Beckman) using Method 1_cAMP DP 11 points.
5 μL of each compound from the 10 mM stock compound plates is transferred to the wells of a 96-well plate respectively as below.
Fill the plate with 45 μL of DMSO except column 7 is filled with 28 μL DMSO. Pipette column 1 thoroughly, and transfer 12 μL into column 7 parallel. Perform 1:10 serial dilution from column 1 to column 6 and from column 7 to column 11 by transfer 5 μL to 45 μL DMSO to make following concentrations:
Fill a new 96-well plate with 247.5 μL of compound dilution buffer. Transfer 2.5 μL of serially diluted compounds from above plate to the new plate (1:100 dilution) as following:
Cell Growth • 1. LS174 T are always grown in MEM (ATCC Cat# 30-2003), 10% FBS (ATCC Cat# 30-2020) and additional 2 mM L-glutamine, at 37° C. and 5% CO2. • 2. Warm 0.05% Trypsin and Versine (Invitrogen Cat# 25300-054) at 37° C. water bath. • 3. […]

IC50	Compound
232 nM	O=C(O)Cc1c(-c2cc(C(F)(F)F)cc(S(=O)(=O)NC3CCCCC3)c2)[nH]c2ccccc12 [Example 12, [2-(3-cyclohexylsulfamoyl-5-trifluoromethyl-phenyl)-1H-indol-3-yl]-acetic acid]
52 nM	O=C(O)Cc1c(-c2ccc(Cl)c(S(=O)(=O)NC3CCOCC3)c2)[nH]c2ccccc12 [Example 1(o), {2-[4-Chloro-3-(tetrahydro-pyran-4-ylsulfamoyl)-phenyl]-1H-indol-3-yl}-acetic acid]
5860 nM	O=C(O)Cc1c(-c2ccc(Cl)c(NC(=O)C3CCCCC3)c2)[nH]c2ccccc12 [Example 14, {2-[4-chloro-3-(cyclohexanecarbonyl-amino)-phenyl]-1H-indol-3-yl}-acetic acid]
8.6 nM	O=C(O)Cc1c(-c2ccc(Cl)c(S(=O)(=O)NCC34CC5CC(CC(C5)C3)C4)c2)[nH]c2ccccc12 [Example 1(m), (2-[4-Chloro-3-[(tricyclo[3.3.1.13.7]decan-1-ylmethyl)-sulfamoyl]-phenyl]-1H-indol-3-yl)-acetic acid]
2 nM	Cc1ccc(-c2[nH]c3ccccc3c2CC(=O)O)cc1S(=O)(=O)NC1CCCCC1 [Example 10(k), [2-(3-Cyclohexylsulfamoyl-4-methyl-phenyl)-1H-indol-3-yl]-acetic acid]
4.2 nM	O=C(O)Cc1c(-c2ccc(Cl)c(S(=O)(=O)NC3CCCCC3)c2)[nH]c2ccc(OC(F)(F)F)cc12 [Example 1(v), [2-(4-Chloro-3-cyclohexylsulfamoyl-phenyl)-5-trifluoromethoxy-1H-indol-3-yl]-acetic acid]
35 nM	O=C(O)Cc1c(-c2ccc(Cl)c(S(=O)(=O)NCCC3CCCCC3)c2)[nH]c2ccccc12 [Example 1(h), {2-[4-Chloro-3-(2-cyclohexyl-ethylsulfamoyl)-phenyl]-1H-indol-3-yl}-acetic acid]
510 nM	O=C(O)c1ccc2cc(-c3ccc(Cl)c(S(=O)(=O)NC4CCCCC4)c3)[nH]c2c1 [Example 16, 2-(4-Chloro-3-cyclohexylsulfamoyl-phenyl)-1H-indole-6-carboxylic acid]
1160 nM	O=C(O)Cc1c(-c2ccc(S(=O)(=O)NC3CCCCC3)cc2)[nH]c2ccccc12 [Example 10(h), [2-(4-Cyclohexylsulfamoyl-phenyl)-1H-indol-3-yl]-acetic acid]
106 nM	O=C(O)Cc1c(-c2cccc(S(=O)(=O)NC3CCCCC3)c2)[nH]c2ccccc12 [Example 10(f), [2-(3-Cyclohexylsulfamoyl-phenyl)-1H-indol-3-yl]-acetic acid]
4 nM	CC(C)(C)c1ccc2[nH]c(-c3ccc(Cl)c(S(=O)(=O)NC4CCCCC4)c3)c(CC(=O)O)c2c1 [Example 1(s), [5-tert-Butyl-2-(4-chloro-3-cyclohexylsulfamoyl-phenyl)-1H-indol-3-yl]-acetic acid]
49 nM	CC(C)NS(=O)(=O)c1cc(-c2[nH]c3ccccc3c2CC(=O)O)ccc1Cl [Example 1(g), [2-(4-Chloro-3-isopropylsulfamoyl-phenyl)-1H-indol-3-yl]-acetic acid]
132 nM	NC(=O)Cc1c(-c2ccc(Cl)c(S(=O)(=O)NC3CCCCC3)c2)[nH]c2ccccc12 [Example 7(a), 2-[2-(4-Chloro-3-cyclohexylsulfamoyl-phenyl)-1H-indol-3-yl]-acetamide]
5 nM	O=C(Cc1c(-c2ccc(Cl)c(S(=O)(=O)NC3CCCCC3)c2)[nH]c2ccccc12)NS(=O)(=O)c1ccccc1 [Example 6, 5-[3-(2-Benzenesulfonylamino-2-oxo-ethyl)-1H-indol-2-yl]-2-chloro-N-cyclohexyl benzenesulfonamide]
4.2 nM	O=C(O)Cc1c(-c2ccc(Cl)c(S(=O)(=O)NC3CCCCC3)c2)[nH]c2ccc(O)cc12 [Example 10(c), [2-(4-Chloro-3-cyclohexylsulfamoyl-phenyl)-5-hydroxy-1H-indol-3-yl]-acetic acid]
346 nM	CN(C1CCCCC1)S(=O)(=O)c1cc(-c2[nH]c3ccccc3c2CC(=O)O)ccc1Cl [Example 1(x), {2-[4-Chloro-3-(cyclohexyl-methyl-sulfamoyl)-phenyl]-1H-indol-3-yl}-acetic acid]
